Values quoted from earlier work in patent publication US12029733B2, “Treatment of sepsis and related inflammatory conditions by local neuromodulation of the autonomic nervous system” (Tulavi Therapeutics, Inc., priority 2016, dated 2024).

Tests used:
GPR120 = target: T1, GPR120 (Homo sapiens, UniProt Q5NUL3); settings: fluorescent indicator measurement of Ca2+ mobilization
T1 sequence (Q5NUL3 1-361): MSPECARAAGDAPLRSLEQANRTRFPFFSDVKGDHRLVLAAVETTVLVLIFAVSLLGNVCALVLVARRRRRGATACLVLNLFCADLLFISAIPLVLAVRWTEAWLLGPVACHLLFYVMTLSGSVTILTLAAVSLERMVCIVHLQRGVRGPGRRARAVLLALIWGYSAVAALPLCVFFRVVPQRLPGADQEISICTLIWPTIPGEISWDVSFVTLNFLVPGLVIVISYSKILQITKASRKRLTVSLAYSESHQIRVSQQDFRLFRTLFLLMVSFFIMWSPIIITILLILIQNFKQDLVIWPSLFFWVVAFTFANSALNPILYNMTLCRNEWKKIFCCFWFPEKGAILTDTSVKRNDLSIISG

FFA1 = FFA1 (Homo sapiens, UniProt O14842); settings: marked *: FFA1 ERK activation (Smith et al. 2009) / aequorin reporter Ca2+ signaling (Kotarsky et al. 2003)
FFA1, sequence (O14842 whole entry): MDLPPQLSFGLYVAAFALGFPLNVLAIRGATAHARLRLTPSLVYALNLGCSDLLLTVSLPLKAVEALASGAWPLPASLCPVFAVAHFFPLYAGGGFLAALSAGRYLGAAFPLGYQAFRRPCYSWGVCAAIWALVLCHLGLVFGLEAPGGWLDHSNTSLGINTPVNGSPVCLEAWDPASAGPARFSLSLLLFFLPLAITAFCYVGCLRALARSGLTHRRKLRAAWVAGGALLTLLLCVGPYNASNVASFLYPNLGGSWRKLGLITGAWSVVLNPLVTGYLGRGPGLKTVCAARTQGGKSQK

[1] = in vivo
KCC2 = target: T2, KCC2 (Homo sapiens, UniProt Q9H2X9)
T2 sequence (Q9H2X9 1-1139): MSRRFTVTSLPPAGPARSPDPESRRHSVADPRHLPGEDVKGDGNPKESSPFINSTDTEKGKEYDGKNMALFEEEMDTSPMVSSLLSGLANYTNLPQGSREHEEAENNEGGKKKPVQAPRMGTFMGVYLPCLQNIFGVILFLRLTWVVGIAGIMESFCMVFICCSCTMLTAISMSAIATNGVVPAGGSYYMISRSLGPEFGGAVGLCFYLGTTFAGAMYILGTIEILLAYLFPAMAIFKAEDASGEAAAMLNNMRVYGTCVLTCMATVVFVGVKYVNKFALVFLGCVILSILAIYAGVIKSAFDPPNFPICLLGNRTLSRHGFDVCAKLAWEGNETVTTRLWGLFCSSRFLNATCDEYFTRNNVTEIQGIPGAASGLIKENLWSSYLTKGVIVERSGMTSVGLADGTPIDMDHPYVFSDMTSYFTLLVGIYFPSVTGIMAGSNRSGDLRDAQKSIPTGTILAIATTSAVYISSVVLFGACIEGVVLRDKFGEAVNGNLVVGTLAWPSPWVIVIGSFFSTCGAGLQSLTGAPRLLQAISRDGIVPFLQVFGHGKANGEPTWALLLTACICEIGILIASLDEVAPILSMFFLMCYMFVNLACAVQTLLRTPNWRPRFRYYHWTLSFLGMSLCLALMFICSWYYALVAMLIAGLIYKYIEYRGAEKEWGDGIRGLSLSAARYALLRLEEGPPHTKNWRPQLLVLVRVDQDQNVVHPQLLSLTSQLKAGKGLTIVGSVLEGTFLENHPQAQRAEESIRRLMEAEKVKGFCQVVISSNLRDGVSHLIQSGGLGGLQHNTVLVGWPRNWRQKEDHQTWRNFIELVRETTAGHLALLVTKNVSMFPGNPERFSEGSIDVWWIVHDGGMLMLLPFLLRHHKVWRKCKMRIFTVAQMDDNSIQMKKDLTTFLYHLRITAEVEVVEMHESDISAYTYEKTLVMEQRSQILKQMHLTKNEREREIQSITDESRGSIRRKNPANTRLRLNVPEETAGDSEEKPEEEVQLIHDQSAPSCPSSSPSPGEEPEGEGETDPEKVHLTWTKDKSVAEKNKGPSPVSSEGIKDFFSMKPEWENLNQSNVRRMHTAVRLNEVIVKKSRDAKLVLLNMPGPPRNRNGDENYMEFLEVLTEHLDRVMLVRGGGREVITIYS

Compound | GPR120 pEC50 (GPR120) | FFA1 pEC50 (FFA1) | other results
CCCCCCCCCCCCCCCC(=O)O [Palmitic Acid (C16:0), Palmitic Acid] | 4.3 | – | –
CCCCCCCC/C=C\CCCCCCCC(=O)O [Oleic acid (C18:l), Oleic acid] | 4.5 | – | –
CN(CCOc1ccc(CC2SC(=O)NC2=O)cc1)c1ccccn1 (stereo not shown) [Rosiglitazone] | – | 5.0-5.6* | –
N=C(N)NC(=O)c1cnn(-c2cccc3ncccc23)c1C1CC1 [Zoniporide] | – | – | neurotoxic effects [1]: causes peripheral sensory axonopathy
CC(C)(CCCCCCCCCCC(C)(C)CC(=O)O)CC(=O)O [MEDICA16] | <5.0 | 5.5-5.9* | –
Cc1csc(NC(=O)CSc2ccc(-c3ccccc3)nn2)n1 [VU0240551] | – | – | selectivity KCC2 over NKCC1 (KCC2): selective for KCC2 over NKCC1
